Measured values reported in PMC9948199 (ACS Omega, 2023).

How the values were obtained:
[1] = Caco-2 permeability assay; format: in vitro ADME; settings: human, Table 1
[2] = Stability in mouse liver microsomes; format: in vitro ADME; settings: pH 7.4
Pharmacokinetics in mice = format: in vivo; settings: intravenous, 3 mpk
[3] = test system: AsPC-1 (pancreatic cancer cell line bearing the KRAS^G12D mutation) xenograft; assay: AsPC-1 xenograft tumor mouse model efficacy; format: in vivo, Balb/c nude mice; settings: 16 days
[4] = Blood, tumor and tissue concentration after last dose in the tumor model; format: in vivo, Balb/c nude mice; settings: for concentration at 2 h / concentration at 8 h: female, Balb/c nude (Nu/Nu), mouse, ip; for concentration at 2 h / concentration at 8 h / concentration of MRTX1133 in kidney: 10 mg/kg; for concentration of MRTX1133 in heart / concentration of MRTX1133 in intestine / concentration of MRTX1133 in liver / concentration of MRTX1133 in lung / concentration of MRTX1133 in spleen / concentration of MRTX1133 in stomach / concentration of MRTX1133 in tumor / concentration of MRTX1133 in kidney: from MRTX1133 IP 10 mpk
[5] = Tolerability and body weight in mice; format: in vivo; settings: oral, 300 mpk
[6] = following IP administration of MRTX1133 (10 mpk), time not given

With C#Cc1c(F)ccc2cc(O)cc(-c3ncc4c(N5CC6CCC(C5)N6)nc(OC[C@@]56CCCN5C[C@H](F)C6)nc4c3F)c12 [MRTX1133] the Papp A→B ([1]; Caco-2, Caco-2 permeability Papp A – B) was < 0.48 ×10⁻⁶ cm/s, the Papp B→A ([1]; Caco-2, Caco-2 permeability Papp B – A) was 8.05 ×10⁻⁶ cm/s and the efflux ratio ([1]; Caco-2, Caco-2 permeability efflux ratio) was > 16.8. For the same molecule, the CLint scaled at 1 μM [2] was 143 mL/min/kg, the half-life at 1 μM [2] was 38.5 min and the “AUC0–24 h of MRTX1133” value (Pharmacokinetics in mice) was 2253 ng·h/mL. For the same molecule, the antitumor effect ([3]; 100 mpk p.o. bid) was “no apparent antitumor effect”, the concentration at 2 h ([4]; brain) was 131 ng/g and the concentration at 8 h ([4]; brain) was 139 ng/g. The concentration at 2 h ([4]; whole blood) was 654 ng/mL, the concentration at 8 h ([4]; whole blood) was 330 ng/mL and the “concentration of MRTX1133 in the liver, spleen, and lung” value [4, 6] was ~60 000 ng/g. The “concentration of MRTX1133 in the stomach, intestine, and heart” value [4, 6] was ~20 000 ng/g, the “concentration of MRTX1133 in heart” value ([4]; 2 h post last dose) was 18 330 ng/g and the “concentration of MRTX1133 in intestine” value ([4]; 2 h post last dose) was 24 388 ng/g. The “concentration of MRTX1133 in liver” value ([4]; 2 h post last dose) was 63 525 ng/g, the “concentration of MRTX1133 in lung” value ([4]; 2 h post last dose) was 53 040 ng/g and the concentration of MRTX1133 in spleen ([4]; 2 h post last dose) was 58400 ng/g. The “concentration of MRTX1133 in stomach” value ([4]; 2 h post last dose) was 26 325 ng/g, the “concentration of MRTX1133 in tumor” value ([4]; 2 h post last dose) was 11 870 ng/g and the “concentration of MRTX1133 in kidney” value ([4]; 2 h post last dose) was 285 150 ng/g. The “concentration of MRTX1133 in heart” value ([4]; 8 h post last dose) was 15 795 ng/g, the “concentration of MRTX1133 in intestine” value ([4]; 8 h post last dose) was 18 213 ng/g and the “concentration of MRTX1133 in liver” value ([4]; 8 h post last dose) was 62 950 ng/g. The “concentration of MRTX1133 in lung” value ([4]; 8 h post last dose) was 57 300 ng/g, the concentration of MRTX1133 in spleen ([4]; 8 h post last dose) was 54000 ng/g and the “concentration of MRTX1133 in stomach” value ([4]; 8 h post last dose) was 27 775 ng/g. The “concentration of MRTX1133 in tumor” value ([4]; 8 h post last dose) was 14 300 ng/g and the “concentration of MRTX1133 in kidney” value ([4]; 8 h post last dose) was 333 900 ng/g.

With C#Cc1c(F)ccc2cc(O)cc(-c3ncc4c(N5C[C@H]6CC[C@@H](C5)N6C(=O)OC(C)OC(=O)CCC)nc(OC[C@@]56CCCN5C[C@H](F)C6)nc4c3F)c12 (stereo partly drawn) [Compound 9, 1-(Butyryloxy)ethyl (1R,5S)-3-(7-(8-ethynyl-7-fluoro-3-hydroxynaphthalen-1-yl)-8-fluoro-2-(((2R,7aS)-2-fluorotetrahydro-1H-pyrrolizin-7a(5H)-yl)methoxy)pyrido[4,3-d]pyrimidin-4-yl)-3,8-diazabicyclo[3.2.1]octane-8-carboxylate] the “tumor growth inhibition (TGI)” value ([3]; high dose 126 mpk (equimolar to 100 mpk MRTX1133) p.o. bid) was 54%, the “tumor growth inhibition (TGI)” value ([3]; low dose 37.8 mpk (equimolar to 30 mpk MRTX1133) p.o. bid) was 20% and the “blood concentration of the named Cpd” value ([4]; 8 h post last oral dose of prodrug 9 (high dose, 126 mpk bid) in the tumor model) was “BLQ”. For the same molecule, the tolerability in mice ([5]; conventional vehicle) was “intolerable” and the tolerability in mice ([5]; lipid-based formulation) was “well-tolerated”.
